# Measured values: US20240251785A1, “SMALL MOLECULE ANTAGONISTS AND AGONISTS OF ARTHROPOD KININ RECEPTORS FOR PEST CONTROL” (The Texas A&M University System, priority 2021, published 2024)
# Target: recombinant tick kinin receptor (BMLK3) (Rhipicephalus microplus, UniProt Q9NHA4)
# Test: Dose-response dual-addition calcium fluorescence assay on BMLK3 cells
# Format: cell-based
# Conditions: 12 μM; BMLK3 cells
# Sequence of recombinant tick kinin receptor (BMLK3) (Q9NHA4 entry or part of it): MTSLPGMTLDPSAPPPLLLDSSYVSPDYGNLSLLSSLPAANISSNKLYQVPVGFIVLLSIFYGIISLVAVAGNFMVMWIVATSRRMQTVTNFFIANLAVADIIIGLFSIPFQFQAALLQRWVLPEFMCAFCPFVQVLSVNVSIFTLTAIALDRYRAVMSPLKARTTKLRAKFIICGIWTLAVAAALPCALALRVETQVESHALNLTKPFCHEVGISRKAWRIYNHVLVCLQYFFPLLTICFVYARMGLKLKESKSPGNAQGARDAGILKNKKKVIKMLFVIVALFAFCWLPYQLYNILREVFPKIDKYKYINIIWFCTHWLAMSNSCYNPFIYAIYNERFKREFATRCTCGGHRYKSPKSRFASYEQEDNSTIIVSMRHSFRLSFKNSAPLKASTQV
row,SMILES,Inhibitory Efficacy at 12 μM [%]
1,CCN1C=C/C(=C\C=C\c2cc[n+](CC)c3ccccc23)c2ccccc21 [SACC-0054132],37.34
2,CSc1nc2ccc(NS(=O)(=O)c3ccc(Cl)s3)cc2s1 [SACC-0099442],71.31
3,O=C1C=CC(Nc2ccc([N+](=O)[O-])cc2)C1Nc1ccc([N+](=O)[O-])cc1 (stereo not drawn) [SACC-0121252],42.68
4,O=C(O)COc1ccc(Br)cc1/C=N/Nc1cccc2cccnc12 [SACC-0126875],59.47
5,Cc1ccc(C=C2SC(=S)N(NS(=O)(=O)c3ccc(C)cc3)C2=O)cc1 [SACC-0412061],48.16
6,Cc1ccc(S(=O)(=O)NN2C(=O)C(=Cc3ccc(F)cc3)SC2=S)cc1 [SACC-0412063],0.61

# Same assay, conditions: BMLK3 cells, Rhimi-K-1 1 μmol L^−1
row,SMILES,"activity type in dose-response assay, in words"
1,CSc1nc2ccc(NS(=O)(=O)c3ccc(Cl)s3)cc2s1 [SACC-0099442],full agonist
2,Cc1ccc(C=C2SC(=S)N(NS(=O)(=O)c3ccc(C)cc3)C2=O)cc1 [SACC-0412061],partial antagonists
3,Cc1ccc(S(=O)(=O)NN2C(=O)C(=Cc3ccc(F)cc3)SC2=S)cc1 [SACC-0412063],very weak partial antagonists

# Same assay, conditions: Table 5 analogs, first addition; read-out: BMLK3 EC50
row,SMILES,EC50 [µM]
1,Cc1ccc(C=C2SC(=S)N(NS(=O)(=O)c3ccc(C)cc3)C2=O)cc1 [SACC-0412061],0.978
2,Cc1ccc(S(=O)(=O)NN2C(=O)C(=Cc3ccc(F)cc3)SC2=S)cc1 [SACC-0412063],24.2

# Same assay, conditions: Table 5 analogs, second addition Rhimi-K-1 1 μmol L^−1; read-out: BMLK3 antagonist IC50
row,SMILES,IC50 [µM]
1,Cc1ccc(C=C2SC(=S)N(NS(=O)(=O)c3ccc(C)cc3)C2=O)cc1 [SACC-0412061],0.509
2,Cc1ccc(S(=O)(=O)NN2C(=O)C(=Cc3ccc(F)cc3)SC2=S)cc1 [SACC-0412063],0.627

# Same assay, conditions: first addition, 20 concentrations 28 nM-25 μM; read-out: BMLK3 EC50
row,SMILES,EC50 [µM]
1,O=C1C=CC(Nc2ccc([N+](=O)[O-])cc2)C1Nc1ccc([N+](=O)[O-])cc1 (stereo not drawn) [SACC-0121252],0.177
2,O=C(O)COc1ccc(Br)cc1/C=N/Nc1cccc2cccnc12 [SACC-0126875],5.73

# Same assay, conditions: second addition Rhimi-K-1 1 μmol L^−1; read-out: BMLK3 IC50
row,SMILES,IC50 [µM]
1,O=C1C=CC(Nc2ccc([N+](=O)[O-])cc2)C1Nc1ccc([N+](=O)[O-])cc1 (stereo not drawn) [SACC-0121252],> 25
2,O=C(O)COc1ccc(Br)cc1/C=N/Nc1cccc2cccnc12 [SACC-0126875],8.51

# Same assay, conditions: summary of 36 validated antagonist hits; BMLK3 cells; read-out: BMLK3 EC50
row,SMILES,EC50 [µM]
1,CCN1C=C/C(=C\C=C\c2cc[n+](CC)c3ccccc23)c2ccccc21 [SACC-0054132],< 0.0285
2,CSc1nc2ccc(NS(=O)(=O)c3ccc(Cl)s3)cc2s1 [SACC-0099442],5.4
3,O=C1C=CC(Nc2ccc([N+](=O)[O-])cc2)C1Nc1ccc([N+](=O)[O-])cc1 (stereo not drawn) [SACC-0121252],0.177
4,O=C(O)COc1ccc(Br)cc1/C=N/Nc1cccc2cccnc12 [SACC-0126875],5.73
5,Cc1ccc(C=C2SC(=S)N(NS(=O)(=O)c3ccc(C)cc3)C2=O)cc1 [SACC-0412061],0.978
6,Cc1ccc(S(=O)(=O)NN2C(=O)C(=Cc3ccc(F)cc3)SC2=S)cc1 [SACC-0412063],24.2

# Same assay, conditions: summary of 36 validated antagonist hits; BMLK3 cells; read-out: BMLK3 IC50
row,SMILES,IC50 [µM]
1,CCN1C=C/C(=C\C=C\c2cc[n+](CC)c3ccccc23)c2ccccc21 [SACC-0054132],3.69
2,CSc1nc2ccc(NS(=O)(=O)c3ccc(Cl)s3)cc2s1 [SACC-0099442],7.17
3,O=C1C=CC(Nc2ccc([N+](=O)[O-])cc2)C1Nc1ccc([N+](=O)[O-])cc1 (stereo not drawn) [SACC-0121252],> 25
4,O=C(O)COc1ccc(Br)cc1/C=N/Nc1cccc2cccnc12 [SACC-0126875],8.51
5,Cc1ccc(C=C2SC(=S)N(NS(=O)(=O)c3ccc(C)cc3)C2=O)cc1 [SACC-0412061],0.509
6,Cc1ccc(S(=O)(=O)NN2C(=O)C(=Cc3ccc(F)cc3)SC2=S)cc1 [SACC-0412063],0.627

# Same assay, conditions: virtual hit molecules; dual-addition assay, recombinant tick kinin receptor (BMLK3) cells; read-out: BMLK3 EC50
row,SMILES,EC50 [µM]
1,CCN1C=C/C(=C\C=C\c2cc[n+](CC)c3ccccc23)c2ccccc21 [SACC-0054132],< 0.0285
2,CSc1nc2ccc(NS(=O)(=O)c3ccc(Cl)s3)cc2s1 [SACC-0099442],5.4

# Same assay, conditions: virtual hit molecules; dual-addition assay, recombinant tick kinin receptor (BMLK3) cells; read-out: BMLK3 antagonist IC50
row,SMILES,IC50 [µM]
1,CCN1C=C/C(=C\C=C\c2cc[n+](CC)c3ccccc23)c2ccccc21 [SACC-0054132],3.69
2,CSc1nc2ccc(NS(=O)(=O)c3ccc(Cl)s3)cc2s1 [SACC-0099442],7.17

# System: vector-only (V/O) CHO-K1 cells
# Test: Dose-response dual-addition calcium fluorescence assay on vector-only cells
# Format: cell-based
# Conditions: Table 5 analogs, V/O cells
row,SMILES,EC50 [µM]
1,Cc1ccc(C=C2SC(=S)N(NS(=O)(=O)c3ccc(C)cc3)C2=O)cc1 [SACC-0412061],5.5
2,Cc1ccc(S(=O)(=O)NN2C(=O)C(=Cc3ccc(F)cc3)SC2=S)cc1 [SACC-0412063],1.21

# Same assay, conditions: Table 5 analogs, V/O cells; read-out: V/O antagonist IC50
row,SMILES,IC50 [µM]
1,Cc1ccc(C=C2SC(=S)N(NS(=O)(=O)c3ccc(C)cc3)C2=O)cc1 [SACC-0412061],2.71
2,Cc1ccc(S(=O)(=O)NN2C(=O)C(=Cc3ccc(F)cc3)SC2=S)cc1 [SACC-0412063],> 25

# Same assay, conditions: V/O cells, first addition
row,SMILES,EC50 [µM]
1,O=C1C=CC(Nc2ccc([N+](=O)[O-])cc2)C1Nc1ccc([N+](=O)[O-])cc1 (stereo not drawn) [SACC-0121252],> 25
2,O=C(O)COc1ccc(Br)cc1/C=N/Nc1cccc2cccnc12 [SACC-0126875],4.61

# Same assay, conditions: V/O cells, second addition Rhimi-K-1 1 μmol L^−1; read-out: V/O antagonist IC50
row,SMILES,IC50 [µM]
1,O=C1C=CC(Nc2ccc([N+](=O)[O-])cc2)C1Nc1ccc([N+](=O)[O-])cc1 (stereo not drawn) [SACC-0121252],2.53
2,O=C(O)COc1ccc(Br)cc1/C=N/Nc1cccc2cccnc12 [SACC-0126875],> 25

# Same assay, conditions: summary of 36 validated antagonist hits; vector-only cell (V/O)
SMILES,EC50 [µM],IC50 [µM]
CCN1C=C/C(=C\C=C\c2cc[n+](CC)c3ccccc23)c2ccccc21 [SACC-0054132],2.56,0.207
CSc1nc2ccc(NS(=O)(=O)c3ccc(Cl)s3)cc2s1 [SACC-0099442],10.8,1.12
O=C1C=CC(Nc2ccc([N+](=O)[O-])cc2)C1Nc1ccc([N+](=O)[O-])cc1 (stereo not drawn) [SACC-0121252],> 25,2.53
O=C(O)COc1ccc(Br)cc1/C=N/Nc1cccc2cccnc12 [SACC-0126875],4.61,> 25
Cc1ccc(C=C2SC(=S)N(NS(=O)(=O)c3ccc(C)cc3)C2=O)cc1 [SACC-0412061],5.5,2.71
Cc1ccc(S(=O)(=O)NN2C(=O)C(=Cc3ccc(F)cc3)SC2=S)cc1 [SACC-0412063],1.21,> 25

# Same assay, conditions: virtual hit molecules; dual-addition assay, vector-only cell (V/O)
row,SMILES,EC50 [µM]
1,CCN1C=C/C(=C\C=C\c2cc[n+](CC)c3ccccc23)c2ccccc21 [SACC-0054132],2.56
2,CSc1nc2ccc(NS(=O)(=O)c3ccc(Cl)s3)cc2s1 [SACC-0099442],10.8

# Same assay, conditions: virtual hit molecules; dual-addition assay, vector-only cell (V/O); read-out: V/O antagonist IC50
row,SMILES,IC50 [µM]
1,CCN1C=C/C(=C\C=C\c2cc[n+](CC)c3ccccc23)c2ccccc21 [SACC-0054132],0.207
2,CSc1nc2ccc(NS(=O)(=O)c3ccc(Cl)s3)cc2s1 [SACC-0099442],1.12

# System: Human dermal fibroblasts (HDF) cells
# Test: Cytotoxicity assay (resazurin)
# Format: cell-based
# Conditions: Human dermal fibroblasts cells; tested at 20 μcool L^−1
row,SMILES,HDF average % growth inhibition [%]
1,CCN1C=C/C(=C\C=C\c2cc[n+](CC)c3ccccc23)c2ccccc21 [SACC-0054132],9.037
2,CSc1nc2ccc(NS(=O)(=O)c3ccc(Cl)s3)cc2s1 [SACC-0099442],−1.16
3,O=C1C=CC(Nc2ccc([N+](=O)[O-])cc2)C1Nc1ccc([N+](=O)[O-])cc1 (stereo not drawn) [SACC-0121252],4.83
4,O=C(O)COc1ccc(Br)cc1/C=N/Nc1cccc2cccnc12 [SACC-0126875],7.477
5,Cc1ccc(C=C2SC(=S)N(NS(=O)(=O)c3ccc(C)cc3)C2=O)cc1 [SACC-0412061],−1.013
6,Cc1ccc(S(=O)(=O)NN2C(=O)C(=Cc3ccc(F)cc3)SC2=S)cc1 [SACC-0412063],2.277
